# Laboratory results reported in ChEMBL document CHEMBL1134497, “Soluble 2-substituted aminopyrido[2,3-d]pyrimidin-7-yl ureas. Structure-activity relationships against selected tyrosine kinases and exploration of in vitro and in vivo anticancer activity” (J Med Chem, 2001).
# How the values were obtained:
# [1] = tested on: C6; assay: Inhibition of C-6 rat glioma cell proliferation; assay type: functional, cell-based
# [2] = tested on: HCT-8; assay: Inhibition of human colon carcinoma HCT-8 cell proliferation; assay type: functional, cell-based
# [3] = tested on: HT-29; assay: Inhibition of human colon carcinoma HT-29 cell proliferation; assay type: functional, cell-based
# [4] = biological target: T1, Platelet-derived growth factor receptor (PDGFr) (Rattus norvegicus, UniProt P20786+Q05030); assay: (§1) Inhibition of PDGF receptor autophosphorylation in rat aortic vascular smooth muscle cells; assay type: functional
# [5] = tested on: SW-620; assay: Inhibition of human colon carcinoma SW-620 cell proliferation; assay type: functional, cell-based
# [6] = biological target: Proto-oncogene tyrosine-protein kinase Src (Gallus gallus, UniProt P00523); assay: Ability to prevent phosphorylation of avian c-Src TK
# [7] = biological target: Cyclin-dependent kinase 4 (Homo sapiens, UniProt P11802); assay: Inhibition of cyclin dependent kinase 4 (CDK4)
# [8] = biological target: Insulin receptor (Homo sapiens, UniProt P06213); assay: Inhibition of insulin receptor kinase
# [9] = Inhibition of MEK1/ERK (MAP Kinase kinase) in cascade assay
# [10] = biological target: Protein kinase C (PKC); assay: Inhibition of protein kinase C; assay type: protein assay
# [11] = biological target: T1, Platelet-derived growth factor receptor (PDGFr); assay: as §1
# Cyclin-dependent kinase 4, sequence (P11802 whole entry): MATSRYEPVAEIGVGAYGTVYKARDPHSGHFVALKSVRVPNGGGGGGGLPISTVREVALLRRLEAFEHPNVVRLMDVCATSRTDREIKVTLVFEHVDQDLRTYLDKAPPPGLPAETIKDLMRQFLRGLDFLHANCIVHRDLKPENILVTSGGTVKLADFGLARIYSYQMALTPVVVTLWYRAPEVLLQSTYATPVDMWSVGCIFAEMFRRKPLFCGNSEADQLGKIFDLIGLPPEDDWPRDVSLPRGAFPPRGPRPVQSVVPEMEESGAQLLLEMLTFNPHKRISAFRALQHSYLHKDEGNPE
# Insulin receptor, sequence (P06213 28-758 limits assumed): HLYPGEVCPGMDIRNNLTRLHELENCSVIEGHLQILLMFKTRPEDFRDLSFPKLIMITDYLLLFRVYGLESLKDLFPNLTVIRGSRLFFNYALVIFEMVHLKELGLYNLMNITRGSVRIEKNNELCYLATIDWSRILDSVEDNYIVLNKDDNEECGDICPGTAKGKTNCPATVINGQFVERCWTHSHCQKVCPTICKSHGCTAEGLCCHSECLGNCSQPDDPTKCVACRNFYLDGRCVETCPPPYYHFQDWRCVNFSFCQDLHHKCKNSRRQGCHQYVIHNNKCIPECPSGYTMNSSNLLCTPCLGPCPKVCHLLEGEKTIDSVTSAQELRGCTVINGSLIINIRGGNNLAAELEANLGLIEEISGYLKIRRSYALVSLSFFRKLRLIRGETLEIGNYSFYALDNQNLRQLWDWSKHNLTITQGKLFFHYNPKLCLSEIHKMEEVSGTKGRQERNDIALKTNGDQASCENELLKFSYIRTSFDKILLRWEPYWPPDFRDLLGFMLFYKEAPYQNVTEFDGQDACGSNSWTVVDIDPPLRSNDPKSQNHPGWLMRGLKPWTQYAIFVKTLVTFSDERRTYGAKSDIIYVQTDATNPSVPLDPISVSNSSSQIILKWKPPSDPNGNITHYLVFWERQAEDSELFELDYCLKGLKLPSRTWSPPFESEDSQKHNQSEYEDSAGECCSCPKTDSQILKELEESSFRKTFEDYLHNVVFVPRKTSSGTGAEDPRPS
# Insulin receptor, sequence (P06213 763-1382 limits assumed): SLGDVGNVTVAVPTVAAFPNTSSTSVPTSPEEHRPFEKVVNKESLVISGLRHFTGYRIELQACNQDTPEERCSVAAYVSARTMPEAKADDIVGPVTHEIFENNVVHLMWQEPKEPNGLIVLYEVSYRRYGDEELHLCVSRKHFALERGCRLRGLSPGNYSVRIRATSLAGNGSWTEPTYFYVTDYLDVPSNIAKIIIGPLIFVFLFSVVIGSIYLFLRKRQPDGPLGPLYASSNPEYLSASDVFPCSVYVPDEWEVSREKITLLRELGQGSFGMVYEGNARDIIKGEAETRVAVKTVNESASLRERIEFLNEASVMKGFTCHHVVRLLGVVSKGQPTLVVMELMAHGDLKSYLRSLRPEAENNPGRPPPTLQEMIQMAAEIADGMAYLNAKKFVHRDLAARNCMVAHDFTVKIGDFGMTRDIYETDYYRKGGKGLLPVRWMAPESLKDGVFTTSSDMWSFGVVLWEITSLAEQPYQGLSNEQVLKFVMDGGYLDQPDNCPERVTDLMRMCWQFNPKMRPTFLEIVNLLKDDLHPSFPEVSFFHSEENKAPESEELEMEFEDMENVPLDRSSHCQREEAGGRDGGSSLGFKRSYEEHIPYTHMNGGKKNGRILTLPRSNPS
Compound,IC50 [1] [µM],IC50 [2] [µM],IC50 [3] [µM],IC50 [4] [µM],IC50 [5] [µM],IC50 [6] [µM],IC50 [7] [µM],IC50 [8] [µM],IC50 [9] [µM],IC50 [10] [µM],IC50 [11] [µM]
CN1CCN(CCCNc2ncc3cc(-c4c(Cl)cccc4Cl)c(NC(=O)Nc4ccccc4)nc3n2)CC1,6.7,4,1.5,0.37,4.1,0.015,–,–,–,–,–
CCN(CC)CCCCNc1ncc2cc(-c3c(Cl)cccc3Cl)c(NC(=O)Nc3ccccc3)nc2n1,8.1,3.2,0.8,–,2.6,0.0075,> 40,> 50,5,> 50,1.2
